US5641775A, “3-phenylureido-1,5-benzodiazepine-diones useful as gastrin or antagonists” (Glaxo SpA, priority 1993, dated 1997)

How the values were obtained:
[1] = molecular target: CCK-A receptor; experiment: CCK receptor binding, CCK-A receptor (Pancreas Assay), Dal Forno procedure
Description: (§1) The greater affinity of the compounds of the invention for the CCK-B receptor over the CCK-A receptor has also been established using the CCK receptor binding assays described by G Dal Fornos et al., J. Pharmcol. Exp & Ther. 261, 1056-1063, 1992.
(§2) The binding affinity of the compounds of the invention for the CCK-A receptor (Pancreas Assay) and CCK-B receptor (guinea pig cortex assay) was determined using the procedure of G Dal Forno et al J. Pharmacol. Exp & Ther. 261-1056-1063. The pKi values determined with respresentative compounds of invention were as follows: […]

[2] = molecular target: T1, CCK-B receptor (Cavia porcellus, UniProt H0VZC5); experiment: CCK receptor binding, CCK-B receptor (guinea pig cortex assay), Dal Forno procedure; details: read-out: pKi CCK-B (converted)
T1 construct: CCK-B receptor (guinea pig cortex assay); from tissue; host or cells: guinea pig cortex
T1 sequence (H0VZC5 entry or part of it): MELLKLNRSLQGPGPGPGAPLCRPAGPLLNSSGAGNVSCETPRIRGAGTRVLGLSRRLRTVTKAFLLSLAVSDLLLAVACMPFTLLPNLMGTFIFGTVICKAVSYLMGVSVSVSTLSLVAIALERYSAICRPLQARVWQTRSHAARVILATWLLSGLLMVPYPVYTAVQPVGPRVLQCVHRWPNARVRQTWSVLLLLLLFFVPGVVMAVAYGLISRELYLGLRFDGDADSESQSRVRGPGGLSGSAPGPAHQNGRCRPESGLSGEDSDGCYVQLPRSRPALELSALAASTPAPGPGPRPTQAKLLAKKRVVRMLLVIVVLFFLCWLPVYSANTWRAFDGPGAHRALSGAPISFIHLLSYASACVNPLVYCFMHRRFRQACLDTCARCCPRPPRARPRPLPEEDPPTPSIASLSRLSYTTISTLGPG
Description: as §1, §2

O=C(Nc1cccc(-c2nn[nH]n2)c1)NC1C(=O)N(CCC2CCCC2)c2ccccc2N(c2ccccc2F)C1=O (single isomer, unassigned; (-)) [Example 5, (-)-N-[1-(Cyclopentylethyl)-2,4-dioxo-5-(2-fluorophenyl)-2,3,4,5-tetrahydro-1H-benzodiazepin-3-yl]-N'-(3-tetrazolyl)phenylurea]
pKi CCK-A [1]: 6.51
Ki [2]: 0.269 nM

O=C(Nc1cccc(-c2nn[nH]n2)c1)NC1C(=O)N(CCC2CCCC2)c2ccccc2N(c2ccccc2F)C1=O (single isomer, unassigned; (+)) [Example 4, (+)-N-[1-(Cyclopentylethyl)-2,4-dioxo-5-(2-fluorophenyl)-2,3,4,5-tetrahydro-1H-benzodiazepin-3-yl]-N'-(3-tetrazolyl)phenylurea]
pKi CCK-A [1]: 6.63
Ki [2]: 0.105 nM

CC(C)(C)CCN1C(=O)C(NC(=O)Nc2cccc(-c3nnn[nH]3)c2)C(=O)N(c2ccccc2)c2ccccc21 (stereo not drawn) [Example 3, N-[1-(3,3-Dimethylbutyl)-2,4-dioxo-5-phenyl-2,3,4,5-tetrahydro-1H-1,5-benzodiazepine-3-yl]-N'[3-(5-tetrazolyl)-phenyl]urea]
pKi CCK-A [1]: 7.64
Ki [2]: 0.288 nM
